Measured values: the supplement of paper PMC11061612

Columns and labels:
Assay in all cases: combination Emax (second highest fraction inhibited in the dose matrix, 72 h); higher = more inhibition; extreme values may be limits of the assay
[1] = system: OAW-42 (Ovarian Carcinoma)
Outline: (§1)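 Bliss excess equals the observed combination effect minus the expected value EA + EB − EA·EB, where EA and EB are the effects of each agent alone. Combination Emax is the second-highest inhibition within the matrix. Inhibition was scaled from CellTiter-Glo 2.0 luminescence, with 0 set by vehicle wells and 1 by blank wells, after 72 hours of two-drug dosing of cells plated in 1536-well plates.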

[2] = system: LB996-RCC (Kidney Carcinoma)
Outline: as §1

[3] = system: MKN45 (Gastric Carcinoma)
Outline: as §1

[4] = system: NCI-H2342 (Lung Adenocarcinoma)
Outline: as §1

[5] = system: WM793B (Melanoma)
Outline: as §1

[6] = system: HCT-15 (Colorectal Carcinoma)
Outline: as §1

[7] = system: COLO-680N (Esophageal Squamous Cell Carcinoma)
Outline: as §1

[8] = system: SHP-77 (Small Cell Lung Carcinoma)
Outline: as §1

[9] = system: RKN (Other Solid Carcinomas)
Outline: as §1

[10] = system: RERF-LC-Sq1 (Squamous Cell Lung Carcinoma)
Outline: as §1

[11] = system: HSC-39 (Gastric Carcinoma)
Outline: as §1

[12] = system: REH (B-Lymphoblastic Leukemia)
Outline: as §1

[13] = system: WM278 (Melanoma)
Outline: as §1

[14] = system: A2058 (Melanoma)
Outline: as §1

[15] = system: RCM-1 (Colorectal Carcinoma)
Outline: as §1

[16] = system: PSN1 (Pancreatic Carcinoma)
Outline: as §1

[17] = system: FADU (Head and Neck Carcinoma)
Outline: as §1

[18] = system: NCI-H23 (Lung Adenocarcinoma)
Outline: as §1

[19] = system: RERF-GC-1B (Gastric Carcinoma)
Outline: as §1

[20] = system: SU-DHL-10 (B-Cell Non-Hodgkin's Lymphoma)
Outline: as §1

SMILES | combination Emax [1] | combination Emax [2] | combination Emax [3] | combination Emax [4] | combination Emax [5] | combination Emax [6] | combination Emax [7] | combination Emax [8] | combination Emax [9] | combination Emax [10] | combination Emax [11] | combination Emax [12] | combination Emax [13] | combination Emax [14] | combination Emax [15] | combination Emax [16] | combination Emax [17] | combination Emax [18] | combination Emax [19] | combination Emax [20]
C[C@@H](c1ccc2nccn2c1)n1nnc2ncc(-c3cnn(C)c3)nc21 [Savolitinib] + CC1(C)CCC(CN2CCN(c3ccc(C(=O)NS(=O)(=O)c4ccc(NCC5CCOCC5)c([N+](=O)[O-])c4)c(Oc4cnc5[nH]ccc5c4)c3)CC2)=C(c2ccc(Cl)cc2)C1 [Venetoclax] (first compound max 1 µM, 7x7, partner max 1 µM) | 0.188 | 0.0725 | 0.831 | 0.188 | 0.137 | 0.12 | 0.211 | 0.314 | 0.195 | 0.167 | 0.197 | 0.608 | 0.102 | 0.107 | 0.121 | 0.12 | 0.154 | 0.205 | 0.128 | 0.0782
C[C@@H](c1ccc2nccn2c1)n1nnc2ncc(-c3cnn(C)c3)nc21 [Savolitinib] + Cc1c2c(nn1C)CSCc1cc(n(C)n1)CSc1cc(c3ccccc3c1)OCCCc1c(C(=O)O)n(C)c3c-2c(Cl)ccc13 [AZD5991] (first compound max 1 µM, 7x7, partner max 1 µM) | 0.21 | 0.125 | 0.839 | 0.321 | 0.168 | 0.152 | 0.183 | 0.34 | 0.117 | 0.173 | 0.99 | 0.806 | 0.15 | 0.36 | 0.114 | 0.174 | 0.546 | 0.915 | 0.788 | 1
Cn1cnc2c(F)c(Nc3ccc(Br)cc3Cl)c(C(=O)NOCCO)cc21 [Selumetinib] + C=CCn1c(=O)c2cnc(Nc3ccc(N4CCN(C)CC4)cc3)nc2n1-c1cccc(C(C)(C)O)n1 [AZD1775] (first compound max 10 µM, partner max 1 µM) | 0.513 | 0.717 | 0.8 | 0.353 | 0.534 | 0.712 | 0.181 | 0.35 | 0.42 | 0.666 | 0.82 | 0.62 | 0.641 | 0.685 | 0.637 | 0.736 | 0.521 | 0.915 | 0.788 | 0.98
Cn1cnc2c(F)c(Nc3ccc(Br)cc3Cl)c(C(=O)NOCCO)cc21 [Selumetinib] + CC(C)n1c(=O)n(C)c2cnc3cc(F)c(-c4ccc(OCCCN5CCCCC5)nc4)cc3c21 [AZD1390] (first compound max 10 µM, 7x7, partner max 0.3 µM) | 0.192 | 0.181 | 0.61 | 0.0339 | 0.503 | 0.155 | 0.143 | 0.15 | 0.379 | 0.402 | 0.201 | 0.0781 | 0.841 | 0.426 | 0.616 | 0.738 | 0.271 | 0.339 | 0.368 | 0.0401
Cn1cnc2c(F)c(Nc3ccc(Br)cc3Cl)c(C(=O)NOCCO)cc21 [Selumetinib] + CCN(CCO)CCCOc1ccc2c(Nc3cc(CC(=O)Nc4cccc(F)c4)[nH]n3)ncnc2c1 [AZD2811] (first compound max 10 µM, 7x7, partner max 1 µM) | 0.194 | 0.343 | 0.674 | 0.365 | 0.528 | 0.28 | 0.188 | 0.362 | 0.352 | 0.535 | 0.903 | 0.604 | 0.581 | 0.649 | 0.656 | 0.708 | 0.467 | 0.484 | 0.436 | 0.738
Cn1cnc2c(F)c(Nc3ccc(Br)cc3Cl)c(C(=O)NOCCO)cc21 [Selumetinib] + C[C@@H]1COCCN1C2=NC(=NC(=C2)C3(CC3)[S@](=N)(=O)C)C4=C5C=CNC5=NC=C4 [AZD6738] (first compound max 10 µM, 7x7, partner max 10 µM) | 0.507 | 0.556 | 0.782 | 0.483 | 0.703 | 0.753 | 0.203 | 0.569 | 0.45 | 0.786 | 0.994 | 0.684 | 0.587 | 0.83 | 0.656 | 0.736 | 0.404 | 0.874 | 0.522 | 0.911
CC(=O)Nc1cccc(-n2c(=O)n(C3CC3)c(=O)c3c(Nc4ccc(I)cc4F)n(C)c(=O)c(C)c32)c1 [Trametinib] + Cc1nc(-c2cn3c(n2)-c2ccc(-c4cnn(C(C)(C)C(N)=O)c4)cc2OCC3)n(C(C)C)n1 [Taselisib] (first compound max 1 µM, 7x7, partner max 10 µM) | 0.969 | 0.955 | 0.799 | 0.5 | 0.855 | 0.756 | 0.501 | 0.459 | 0.544 | 0.981 | 1 | 0.544 | 0.983 | 1 | 0.871 | 0.946 | 0.837 | 0.686 | 0.949 | 0.977
CC1(C)CCC(CN2CCN(c3ccc(C(=O)NS(=O)(=O)c4ccc(NCC5CCOCC5)c([N+](=O)[O-])c4)c(Oc4cnc5[nH]ccc5c4)c3)CC2)=C(c2ccc(Cl)cc2)C1 [Venetoclax] + C1CN(CCC1(C(=O)N[C@@H](CCO)C2=CC=C(C=C2)Cl)N)C3=NC=NC4=C3C=CN4 [Capivasertib] (first compound max 1 µM, 7x7, partner max 3 µM) | 0.368 | 0.471 | 0.581 | 0.248 | 0.295 | 0.254 | 0.0815 | 0.402 | 0.149 | 0.663 | 0.956 | 0.936 | 0.232 | 0.323 | 0.367 | 0.218 | 0.155 | 0.119 | 0.335 | 0.957
CC1(C)CCC(CN2CCN(c3ccc(C(=O)NS(=O)(=O)c4ccc(NCC5CCOCC5)c([N+](=O)[O-])c4)c(Oc4cnc5[nH]ccc5c4)c3)CC2)=C(c2ccc(Cl)cc2)C1 [Venetoclax] + C=CCn1c(=O)c2cnc(Nc3ccc(N4CCN(C)CC4)cc3)nc2n1-c1cccc(C(C)(C)O)n1 [AZD1775] (first compound max 1 µM, partner max 1 µM) | 0.436 | 0.758 | 0.765 | 0.268 | 0.531 | 0.47 | 0.257 | 0.733 | 0.176 | 0.586 | 1 | 1 | 0.436 | 0.413 | 0.698 | 0.391 | 0.491 | 0.855 | 0.753 | 0.967
CC1(C)CCC(CN2CCN(c3ccc(C(=O)NS(=O)(=O)c4ccc(NCC5CCOCC5)c([N+](=O)[O-])c4)c(Oc4cnc5[nH]ccc5c4)c3)CC2)=C(c2ccc(Cl)cc2)C1 [Venetoclax] + CCN(CCO)CCCOc1ccc2c(Nc3cc(CC(=O)Nc4cccc(F)c4)[nH]n3)ncnc2c1 [AZD2811] (first compound max 1 µM, 7x7, partner max 1 µM) | 0.204 | 0.339 | 0.588 | 0.217 | 0.258 | 0.178 | 0.187 | 0.64 | 0.176 | 0.361 | 0.981 | 1 | 0.337 | 0.402 | 0.372 | 0.222 | 0.219 | 0.184 | 0.298 | 0.807
CC1(C)CCC(CN2CCN(c3ccc(C(=O)NS(=O)(=O)c4ccc(NCC5CCOCC5)c([N+](=O)[O-])c4)c(Oc4cnc5[nH]ccc5c4)c3)CC2)=C(c2ccc(Cl)cc2)C1 [Venetoclax] + CN(C)CCCOc1ccc(-c2ccc3ncc4c(c3c2)n(C2CCOCC2)c(=O)n4C)cn1 [AZD0156] (first compound max 1 µM, 7x7, partner max 1 µM) | 0.204 | 0.222 | 0.688 | 0.203 | 0.244 | 0.226 | 0.173 | 0.424 | 0.107 | 0.229 | 0.926 | 0.908 | 0.211 | 0.226 | 0.45 | 0.3 | 0.196 | 0.122 | 0.242 | 0.137
CC1(C)CCC(CN2CCN(c3ccc(C(=O)NS(=O)(=O)c4ccc(NCC5CCOCC5)c([N+](=O)[O-])c4)c(Oc4cnc5[nH]ccc5c4)c3)CC2)=C(c2ccc(Cl)cc2)C1 [Venetoclax] + COc1cc(Nc2ncc3c(n2)-c2ccc(Cl)cc2C(c2c(F)cccc2OC)=NC3)ccc1C(=O)O [Alisertib] (first compound max 1 µM, 7x7, partner max 10 µM) | 0.652 | 0.658 | 0.563 | 0.214 | 0.383 | 0.537 | 0.318 | 0.719 | 0.203 | 0.42 | 0.992 | 0.99 | 0.362 | 0.612 | 0.372 | 0.526 | 0.351 | 0.464 | 0.688 | 0.827
